Values quoted from earlier work in publication PMC3736096 (Nature, 2013).

Structure (SMILES): COc1ccc(S(=O)(=O)Nc2nc(-c3cccc([N+](=O)[O-])c3)c(CN3CCCCC3)s2)cc1OC [JM6]
- blood-brain barrier penetration: do not appreciably penetrate the blood-brain barrier

Structure (SMILES): COc1ccc(S(=O)(=O)Nc2nc(-c3cccc([N+](=O)[O-])c3)cs2)cc1OC [Ro 61-8048, 3,4-dimethoxy-[-N-4-(nitrophenyl)thiazol-2yl]-benzenesulfonamide]
- blood-brain barrier penetration: do not appreciably penetrate the blood-brain barrier
